# From article PMC9133015 (Nature Communications, 2022)
# Values joined by “and” are separate entries in the source; they are usually repeats but may differ in a detail not shown here. Identical values can stand only once.
# Experiments:
# 22Rv1 cells [1] = assay: Anti-proliferation activity assay (CCK8, 72 h); format: cell-based, human; conditions: for Relative proliferation rate (%) / optical density / Relative proliferation rate (%) mean: 22Rv1; for Relative proliferation rate (%) / optical density: replicates
# PC-3 cells [2] = assay: Invasion assay (transwell); format: cell-based, human; conditions: for Cell invasion (cell number): PC-3, replicates
# DU145 cells [3] = assay: Invasion assay (transwell); format: cell-based, human; conditions: for Cell invasion (cell number): replicates
# DU145 xenograft = assay: H&E and Ki67 staining of xenograft tumor tissues; format: in vivo, BALB/c nude mice; conditions: replicates
# 22Rv1 cells [4] = assay: Colony formation assay; format: cell-based, human; conditions: replicates
# DU145 cells [5] = assay: Colony formation assay; format: cell-based, human; conditions: replicates
# PC-3 cells [6] = assay: Cell cycle assay (PI flow cytometry); format: cell-based, human; conditions: for Cell cycle percentages ( % ) G0/G1 / Cell cycle percentages ( % ) G2/M / Cell cycle percentages ( % ) S: PC-3, replicates
# 22Rv1 cells [7] = assay: Cell cycle assay (PI flow cytometry); format: cell-based, human; conditions: 22Rv1, 0.5 μM, replicates
structure (smiles),measurement,setting,value
CCN1CCN(C(=O)c2ccc(Nc3ncc(F)c(-c4ccc5nc(N(C)C)sc5c4)n3)nc2)CC1 [YK-2-69],Relative proliferation rate (%),22Rv1 cells [1]; 0.3125 uM,36.3369% and 30.9127% and 33.6673%
same,optical density,22Rv1 cells [1]; 0.3125 uM,0.65 and 0.704 and 0.662
same,Relative proliferation rate (%) mean,22Rv1 cells [1]; 1.25 uM,55.2648%
same,Relative proliferation rate (%),22Rv1 cells [1]; 1.25 uM,58.57% and 51.9136% and 55.3106%
same,optical density,22Rv1 cells [1]; 1.25 uM,0.423 and 0.49 and 0.446
same,Relative proliferation rate (%) mean,22Rv1 cells [1]; 5 uM,68.233%
same,Relative proliferation rate (%),22Rv1 cells [1]; 5 uM,72.38% and 64.0824% and 68.2365%
same,optical density,22Rv1 cells [1]; 5 uM,0.282 and 0.366 and 0.317
same,Relative proliferation rate (%) mean,22Rv1 cells [1]; 20 uM,73.6982%
same,Relative proliferation rate (%),22Rv1 cells [1]; 20 uM,76.5916% and 70.7556% and 73.7475%
same,optical density,22Rv1 cells [1]; 20 uM,0.239 and 0.298 and 0.262
same,Relative proliferation rate (%) mean,22Rv1 cells [1]; 80 uM,89.3325%
same,Relative proliferation rate (%),22Rv1 cells [1]; 80 uM,93.7316% and 84.8871% and 89.3788%
same,optical density,22Rv1 cells [1]; 80 uM,0.064 and 0.154 and 0.106
same,inhibitory activity against proliferation (in words),22Rv1 cells [1]; 22Rv1 cells,potent inhibitory activity
same,Cell invasion (cell number),PC-3 cells [2]; 1 µM,2987 cell number and 3005 cell number and 2946 cell number
same,Cell invasion (cell number),PC-3 cells [2]; 2 µM,2589 cell number and 2699 cell number and 2710 cell number
same,Cell invasion (cell number),PC-3 cells [2]; 4 µM,489 cell number and 503 cell number and 468 cell number
same,invasion (in words),"PC-3 cells [2]; PC-3 cells, dose-dependent",remarkably inhibited the migration and invasion
same,Cell invasion (cell number),"DU145 cells [3]; DU145, 2 μM",340 cell number and 358 cell number and 328 cell number
same,Cell invasion (cell number),"DU145 cells [3]; DU145, 4 μM",258 cell number and 240 cell number and 252 cell number
same,Cell invasion (cell number),"DU145 cells [3]; DU145, 8 μM",87 cell number and 91 cell number and 82 cell number
same,invasion (in words),"DU145 cells [3]; DU145 cells, dose-dependent",remarkably inhibited the migration and invasion
same,Positive rate ( % ) (Fig. 7f),"DU145 xenograft; DU145, High dose",15.32% and 14.77% and 16.1%
same,Positive rate ( % ) (Fig. 7f),"DU145 xenograft; DU145, Low dose",20.24% and 19.5% and 21.1%
same,Colony formation (cell number),"22Rv1 cells [4]; 22Rv1, 0.5 μM",93 cell number and 88 cell number and 94 cell number
same,Colony formation (cell number),"22Rv1 cells [4]; 22Rv1, 1 μM",40 cell number and 56 cell number and 58 cell number
same,Colony formation (cell number),"22Rv1 cells [4]; 22Rv1, 2 μM",10 cell number and 9 cell number and 13 cell number
same,Colony formation (cell number),"DU145 cells [5]; DU145, 2 μM",70 cell number and 67 cell number and 77 cell number
same,Colony formation (cell number),"DU145 cells [5]; DU145, 4 μM",40 cell number and 38 cell number and 35 cell number
same,Colony formation (cell number),"DU145 cells [5]; DU145, 8 μM",15 cell number and 12 cell number and 10 cell number
same,Cell cycle percentages ( % ) G0/G1,PC-3 cells [6]; 0.5 µM,55.96% and 58.42% and 57.82%
same,Cell cycle percentages ( % ) G0/G1,PC-3 cells [6]; 1 µM,58.52% and 60.06% and 62.96%
same,Cell cycle percentages ( % ) G0/G1,PC-3 cells [6]; 2 µM,64.67% and 62.48% and 65.02%
same,Cell cycle percentages ( % ) G2/M,PC-3 cells [6]; 0.5 µM,27.56% and 26.05% and 24.61%
same,Cell cycle percentages ( % ) G2/M,PC-3 cells [6]; 1 µM,26.02% and 25.73% and 24.02%
same,Cell cycle percentages ( % ) G2/M,PC-3 cells [6]; 2 µM,24.12% and 24.24% and 22.16%
same,Cell cycle percentages ( % ) S,PC-3 cells [6]; 0.5 µM,16.48% and 15.53% and 17.57%
same,Cell cycle percentages ( % ) S,PC-3 cells [6]; 1 µM,15.46% and 14.21% and 13.02%
same,Cell cycle percentages ( % ) S,PC-3 cells [6]; 2 µM,11.21% and 13.28% and 12.82%
same,cell cycle (in words),"PC-3 cells [6]; PC-3 cells, concentration-dependent",arrested cell cycle at the G0/G1 phase
same,Cell cycle percentages ( % ) G0/G1,22Rv1 cells [7],58.59% and 61.06% and 63.23%
same,Cell cycle percentages ( % ) G2/M,22Rv1 cells [7],21.63% and 20.2% and 19.61%
same,Cell cycle percentages ( % ) S,22Rv1 cells [7],19.78% and 18.74% and 17.16%
